Data on one compound can be found in patent US20240180895A1, “USE OF KAPPA OPIOID RECEPTOR AGONISTS TO TREAT CARDIOVASCULAR DISEASE” (Board of Supervisors of Louisiana State University and …, priority 2021, published 2024).

Holding throughout (type): in vivo, rat
The subject of experiment [1] is conscious Sprague-Dawley rats. Briefly: Acute cardiovascular and renal excretory studies, i.v. bolus (Example 3). As for the experimental part: (§1) Animals: Male Sprague-Dawley (SD) rats (Envigo Labs, Indianapolis, IN), 300-350 g, were individually housed under a 12 h light-dark cycle and allowed tap water and standard rodent diet ad libitum. Rats were randomly assigned to experimental groups for all acute and subacute studies. All procedures were approved by the Louisiana State University Health Sciences Center Institutional Animal Care and Use Committee and conducted in accordance with the National Institutes of Health guidelines for the care and use of animals.
Surgical Procedures: Aseptic technique was followed for all surgical procedures. On the morning of the experiment, rats were anesthetized with and maintained under inhaled 2% isoflurane, and polyethylene catheters (PE50; BD Diagnostics, Sparks, MD) were surgically inserted into the left femoral vein and left femoral artery for the infusion of saline and/or drug administration and the recording of arterial blood pressure, respectively. Subsequently, a suprapubic incision was made and a flanged polyethylene catheter (PE240; BD Diagnostics, Sparks, MD) was inserted into the bladder, exteriorized, and sutured to surrounding muscle and skin. Rats were then placed in an elevated restrainer (Krowicki & Kapusta, 2011) to recover from surgery and allow collection of urine. When acute experimental protocols were completed, rats were anesthetized via isoflurane and decapitated.
Acute Cardiovascular and Renal Excretory Studies: Following surgery, rats received an i.v. infusion of isotonic saline at 55 μL min^−1 throughout the duration of the experiment and were allowed 4-6 hours to recover from anesthesia. Arterial catheters were connected to a pressure transducer (MLT0670, ADInstruments, Sydney, Australia), which was connected to Powerlab 8/30 (ADInstruments) for recording of pulsatile and mean arterial blood pressure (MAP) and heart rate (HR). Blood pressure and HR were visualized using LabChart software (v8.1.5; ADInstruments). […] Following this control period, drug or vehicle (isotonic saline) was injected into the femoral vein catheter at a volume of 2 cc kg^−1, and urines were collected in 10 minute periods for a span of 90 minutes. […] All groups are n=6. Urine volume was measured gravimetrically, urine sodium and potassium concentrations were measured using flame photometry (model 943; Instrumentation Laboratories, Lexington, MA), and urine osmolality was measured using a vapor pressure osmometer (model 5600; WESCOR, Logan, UT).
(§2) Experimental Design and Analysis: All results are expressed as mean±SEM. […] Means between groups for total urine output, Na^+ concentration, K^+ concentration, and urine osmolality were compared using a Student's t-test. Statistical significance was characterized as P<0.05. Statistics were carried out using Prism 7.05 software (GraphPad Software, Inc., San Diego, CA) and IBM SPSS Statistics (IBM, Armonk, NY).

Experiment [2] deals with Sprague-Dawley rats. The experiment in a line: Prevention of diuretic resistance to once daily furosemide by difelikefalin, 24-hour urine (FIG. 14). As for the experimental part:
Male Sprague-Dawley rats were placed in individual metabolic cages in a room with 12-hour automatic light on/off control and allowed tap water and rodent chow ad libitum. Over the next two (2) days (control period), rats were administered vehicle (5% NaOH; 1 M PBS, IP) in the morning (9:00 am) and urine was then collected for 24-hours.

Experiment [3] concerns Sprague-Dawley rats. Briefly: Reversal of oral furosemide diuretic resistance by oral nalfurafine (FIG. 17). As for the experimental part: Male Sprague-Dawley rats were placed in individual metabolic cages in a room with 12-hour automatic light on/off control and allowed tap water and rodent chow ad libitum. Over the next two (2) days (control period), rats were administered vehicle (5% NaOH; 1 M PBS) orally (gavage) in the morning (9:00 am) and afternoon (2:00 pm) and urine was collected for 5-hours after the first oral treatment. […] This was repeated for 8 consecutive days (experimental period).

The test system of experiment [4] is Sprague-Dawley rats. Briefly: Prevention of diuretic resistance to twice daily furosemide by nalfurafine, 5-hour urine (FIG. 15). As for the experimental part: Male Sprague-Dawley rats were placed in individual metabolic cages in a room with 12-hour automatic light on/off control and allowed tap water and rodent chow ad libitum. Over the next two (2) days (control period), rats were administered vehicle (5% NaOH; 1 M PBS, IP) in the morning (9:00 am) and afternoon (2:00 pm) of each day, with urine collected for 5-hours starting immediately after the first injection. […] This was repeated for 4 consecutive days (experimental period).

The test system of experiment [5] is Sprague-Dawley rats placed on a low-salt diet. Briefly: Reversal of furosemide diuretic resistance by difelikefalin in rats on a low sodium diet (FIG. 16). The following applies: low sodium diet. On the procedure:
Male Sprague-Dawley rats were placed in individual metabolic cages in a room with 12-hour automatic light on/off control and allowed tap water. For these studies, rats were placed on a low-salt diet (0.1% NaCl) for one week prior to and throughout the experimental protocol. […] For the first two (2) days (control period), rats were administered vehicle (5% NaOH; 1 M PBS, IP) in the morning (9:00 am) and urine was then collected for 5-hours.

The test system of experiment [6] is conscious Sprague-Dawley rats. The experiment in a line: Metabolic cage renal excretory studies, oral gavage (Example 3). The following applies: oral gavage, mean±SEM. As for the experimental part: as §1
Metabolic Cage Renal Excretory Studies: Rats were placed in metabolic cages (model 18cv, Fenco, Cataumet, MA) for 2 hours to allow for acclimation and voiding of residual urine. Following the acclimation period, rats were volume loaded with 20 cc kg^−1 drug or vehicle (isotonic saline) via oral gavage. Urines were collected each hour over a 5-hour period. Following completion of the study rats were returned to their home cages. […] These points are marked on the figures with number of measurements in parentheses.
as §2

[7] abbreviates: i.v. bolus, cumulative 90-min urine, same doses, mean±SEM.
Where [8] appears, read: cumulative 5-hour urine, same doses.

With `NS(=O)(=O)c1cc(C(=O)O)c(NCc2ccco2)cc1Cl` [furosemide], the “Duration of the increase in urine flow rate above control” value in experiment [1] (after i.v. bolus) is given as 30 min. The “Time of peak diuresis (urine flow rate)” value in experiment [1] (after i.v. bolus) stood at 10 min. In addition, in experiment [1] (i.v. bolus, 90-min protocol), the “Effect on heart rate (HR)” value is recorded as “did not produce any change in MAP or HR”. In experiment [1] (i.v. bolus, diuretic alone, 90-min protocol), the “Effect on MAP” value was “did not produce any change in MAP or HR”. For the same compound, the “Potassium concentration [K+] in cumulative urine” value in experiment [1] (setting [7]) amounted to 14.51±0.63 μeq ml^−1; in experiment [6] (setting [8]) it was 23.94±1.02 μeq ml^−1. In addition, the “Sodium concentration [Na+] in cumulative urine” value in experiment [1] (setting [7]) was 138±1.58 μeq ml^−1; in experiment [6] (setting [8]), 96.76±2.66 μeq ml^−1. Further, the Urine osmolality in experiment [1] (setting [7]) was 379.8 ± 15.33 mmol/kg. Besides, the Total urine output in experiment [1] (i.v. bolus, cumulative urine of 90-min protocol, nalfurafine 5 μg kg−1, furosemide 7.5 mg kg−1, HCTZ 2.5 mg kg−1, amiloride 2 mg kg−1, mean±SEM, n=6) was determined as 9.20 ± 0.75 mL; in experiment [6] (cumulative urine of 5-hour protocol, nalfurafine 150 μg kg−1, furosemide 50 mg kg−1, HCTZ 5 mg kg−1, amiloride 5 mg kg−1, n=6) it was 18.28 ± 0.67 mL. For the same compound, the “Day of peak diuresis” value in the experiment with Sprague-Dawley rats [2] (once daily IP for 10 days) is 2 days; with Sprague-Dawley rats [3] (furosemide alone, oral), 1 days; in the experiment on Sprague-Dawley rats [4] (twice daily IP for 4 days), 1 days; in experiment [5] (furosemide alone), 1 days. Further, the “24-hour urine output on day 10” value in the experiment on Sprague-Dawley rats [2] (once daily IP, furosemide 10 mg/kg alone or with difelikefalin 20 μg/kg, day 10) turned out to be 5.57 ± 0.63 mL. Further, in the experiment with Sprague-Dawley rats [2] (once daily IP, furosemide 10 mg/kg alone or with difelikefalin 20 μg/kg, mean±SEM), the “24-hour urine output at peak diuresis” value was determined as 14.98 ± 1.85 mL. The “5-hour urine output at peak diuresis” value with Sprague-Dawley rats [3] (furosemide (20 mg/kg per method) orally twice per day, day 1) was 13.97 ± 0.64 mL; with Sprague-Dawley rats [4] (twice daily IP, furosemide 20 mg/kg alone or with nalfurafine 10 μg/kg, mean±SEM), 13.99 ± 0.72 mL; in experiment [5] (furosemide 10 mg/kg IP once daily, day 1) it was 9.86 ± 0.76 mL. Further, the “5-hour urine output on day 6” value with Sprague-Dawley rats [3] (furosemide alone orally twice per day, day 6) worked out at 5.61 ± 1.14 mL. In addition, the “5-hour urine output on day 4” value with Sprague-Dawley rats [4] (twice daily IP, furosemide 20 mg/kg alone or with nalfurafine 10 μg/kg, day 4) stood at 7.41 ± 1.40 mL. Also, the “5-hour urine output on day 12” value in experiment [5] (furosemide 10 mg/kg IP once daily alone, day 12) is 4.43 ± 0.54 mL.
